EC50 data for one compound are collected here from patent US20220259202A1, “1-(4-(AMINOMETHYL)BENZYL)-2-BUTYL-2H-PYRAZOLO[3,4-C]QUINOLIN-4-AMINE DERIVATIVES AND RELATED COMPOUNDS AS TOLL-LIKE RECEPTOR (TLR) 7/8 AGONISTS, AS WELL AS ANTIBODY DRUG CONJUGATES THEREOF FOR USE IN CANCER THERAPY AND DIAGNOSIS” (SUTRO BIOPHARMA, INC., priority 2019, published 2022).

Assay [1] addresses T1, human TLR8 (Homo sapiens, UniProt Q9NR97).
T1 construct: host or cells: HEK293
T1 sequence (Q9NR97 27-1041): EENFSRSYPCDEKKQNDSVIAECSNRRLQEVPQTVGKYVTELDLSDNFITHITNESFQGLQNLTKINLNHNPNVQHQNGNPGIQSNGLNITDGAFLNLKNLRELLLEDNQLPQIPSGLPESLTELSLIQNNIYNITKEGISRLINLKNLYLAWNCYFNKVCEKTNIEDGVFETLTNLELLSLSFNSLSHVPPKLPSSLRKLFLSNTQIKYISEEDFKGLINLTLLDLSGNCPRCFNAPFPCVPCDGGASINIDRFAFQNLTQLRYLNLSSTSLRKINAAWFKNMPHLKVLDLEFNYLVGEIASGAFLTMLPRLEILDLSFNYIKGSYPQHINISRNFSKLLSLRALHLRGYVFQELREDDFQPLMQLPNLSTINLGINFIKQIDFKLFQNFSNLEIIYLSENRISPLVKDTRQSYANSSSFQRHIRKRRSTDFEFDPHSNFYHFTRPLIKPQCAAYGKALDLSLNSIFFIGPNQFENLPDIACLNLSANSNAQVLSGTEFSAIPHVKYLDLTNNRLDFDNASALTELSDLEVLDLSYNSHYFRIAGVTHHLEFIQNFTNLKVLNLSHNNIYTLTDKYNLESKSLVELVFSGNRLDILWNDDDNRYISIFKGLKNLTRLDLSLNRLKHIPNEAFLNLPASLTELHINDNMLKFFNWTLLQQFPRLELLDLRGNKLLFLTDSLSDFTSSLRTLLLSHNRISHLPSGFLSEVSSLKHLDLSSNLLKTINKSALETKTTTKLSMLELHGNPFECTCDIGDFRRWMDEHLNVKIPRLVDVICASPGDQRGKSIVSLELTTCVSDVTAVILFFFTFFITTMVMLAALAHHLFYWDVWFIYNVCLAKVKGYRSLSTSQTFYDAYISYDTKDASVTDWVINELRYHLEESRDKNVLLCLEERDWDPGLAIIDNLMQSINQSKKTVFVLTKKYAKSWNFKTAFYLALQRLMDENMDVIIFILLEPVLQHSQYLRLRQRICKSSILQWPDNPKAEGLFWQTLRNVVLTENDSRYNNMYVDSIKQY
The assay is described as follows: HEK293 SEAP reporter assay, other TLRs (Biological Example 3). The settings on record: 16 hrs, * = Estimated. The format is cell-based. An excerpt: In this example, the activity of the Compound 1 to stimulate different human and mouse TLR pathways was investigated on HEK293 cells transfected with inducible SEAP (secreted embryonic alkaline phosphatase) reporter genes and also expressing different human TLRs (TLR2, TLR3, TLR4, TLR5, TLR7, TLR8, TLRS) or mouse TLRs (TLR2, TLR3, TLR4, TLR5, TLR7, TLR8, TLR13).
HEK293 reporter cell lines were purchased from Invivogen and cell lines were maintained in manufacture recommended culture medium with required supplemental antibiotics. On the day of assay, the cells were harvested with Accutase and counted by the Vi-CELL Cell Viability Analyzers. Cells were re-suspended in HEK blue detection medium and a total of 10000 cells were seeded in each well of a 384-well flat bottom plate. […] Assay plates were cultured at 37° C. in a CO2 incubator for 16 hrs. HEK-Blue™ Detection medium changes to a purple/blue color in the presence of secreted SEAP, which can be detected by spectrophotometry at 620-655 nm. Data was fitted with non-linear regression analysis, using a log(inhibitor) vs. response-variable slope, 3-parameter fit with GraphPad Prism.

The target in assay [2] is T1, human TLR8. The assay is described as follows: HEK293 SEAP reporter assay, human TLR8 (Biological Example 1). The class given is cell-based. The settings on record: HEK293-humanTLR8 reporter cells, 4 hrs; read-out: hTLR8 EC50. The protocol:
In this example, the activity of the TLR7 agonists to activate human TLR7, hTLR7 (or human TLR8, hTLR8, or mouse TLR7, mTLR7) pathway was evaluated on HEK293 reporter cells transfected with human TLR7 (or mouse TLR7 or human TLR8) and an inducible SEAP (secreted embryonic alkaline phosphatase) reporter gene. The SEAP reporter gene is placed under the control of the IFN-β minimal promoter fused to five NF-κB and AP-1-binding sites. Stimulation with a TLR7 agonist activates NF-KB and AP-1 which induces the production of SEAP. Levels of SEAP was determined with HEK-Blue Detection medium.
HEK293-humanTLR7, HEK293-mouseTLR7 and HEK293-humanTLR8 reporter cell lines were purchased from Invivogen and cell lines were maintained in manufacture recommended culture medium with required supplemental antibiotics. On the day of assay, the cells were harvested with Accutase and counted by the Vi-CELL Cell Viability Analyzers. Cells were re-suspended in HEK blue detection medium and a total of 10000 cells were seeded in each well of a 384-well flat bottom plate. Serial dilutions of TLR7 agonists free drugs (1:3 serial dilution starting from 5 μM) was added into treatment wells. Assay plates were cultured at 37° C. in a CO2 incubator for […]. HEK-Blue™ Detection medium changes to a purple/blue color in the presence of secreted SEAP, which can be detected by spectrophotometry at 620-655 nm. […]

On to `CCCCn1nc2c(N)nc3ccccc3c2c1Cc1ccc(CN)cc1` [Compound 1, 1-(4-(aminomethyl)benzyl)-2-butyl-2H-pyrazolo[3,4-c]quinolin-4-amine], for which the EC50 at human TLR8 [1] was about 401 nM; on human TLR8 [2] it was 820 nM.
